Data published in patent US20050261246A1, “Methods for treating inflammatory and autoimmune diseases” (priority 2004, published 2005).

What was measured:
[1] = tested on: TNF-α production by macrophages; conditions: LPS- or bacteria-induced; cited from earlier work
[2] = tested on: arthritic rats; conditions: cited from earlier work
[3] = healthy mice; cited from earlier work
[4] = tested on: Japanese encephalitis; conditions: flavivirus infection; cited from earlier work
[5] = tested on: VEGF production in human cancer cell lines; test: VEGF production in human cancer cell lines (ELISA); format: cell-based
Procedure: (A) Effect of SNS on VEGF production was analyzed in two cancer cell lines (both supernatants and cell lysates). (B) The supernatant from control and drug treated H460 cells was analyzed for the level of VEGF (pg/ml). C. […] Statistical analyses were performed using one-way ANOVA.
As discussed above, SNS and pancratastatin were originally synthesized as an anti-cancer agent. The inventors also examined the effect of SNS and pancratastatin on the production of VEGF in human cancer cell lines (FIG. 2). […] This analysis had been performed at least 3-5 times depending on the cell lines and drug used, with statistical analysis performed using one-way ANOVA.

[6] = tested on: Encephalitozoan intestinalis; conditions: cited from earlier work
[7] = tested on: tumor growth; conditions: cited from earlier work

| SMILES | TNF-α production by macrophages [1] | footpad volumes, severe chronic inflammation ([2]; day 21 post-CFA challenge, treated vs untreated arthritic rats) | inflammation, acute phase ([2]; given from the time of CFA challenge, day 14 post-CFA challenge) | growth rate [3] | survival rate [4] | VEGF production, narcistatin compared with pancratistatin [5] | effect on VEGF production/secretion ([5]; human cancer cell lines, ELISA) | activity against the parasite [6] | potency in inhibiting tumor growth relative to SNS [7] |
| --- | --- | --- | --- | --- | --- | --- | --- | --- | --- |
| O=C1N[C@@H]2C(=C[C@H](O)[C@@H](O)[C@H]2O)c2cc3c(c(O)c21)OCO3 [narciclasine] | inhibits lipopolysaccharide (LPS)- or bacteria-induced production of TNF-α by macrophages | no differences in their footpad volumes | able to inhibit inflammation during the acute inflammatory phase | inhibits the growth rate of healthy mice |  |  |  |  |  |
| O=C1N[C@H]2[C@H](O)[C@H](O)[C@@H](O)[C@H](O)[C@@H]2c2cc3c(c(O)c21)OCO3 [pancratistatin] |  |  |  |  | up to 100% | comparable inhibition on VEGF production | inhibitory effect | activity against the parasite Encephalitozoan intestinalis | more potent than SNS in inhibiting tumor growth |
